From patent US9302999B2, “Substituted triazoles as herbicides” (E. I. DU PONT DE NEMOURS AND COMPANY, priority 2012, dated 2016)
Where two headings read alike, the source gives them in different places.

Tests used:
Format in all cases: in vivo
[1] = test system: winter wheat (Triticum aestivum); test: Test C pre-/postemergence: winter wheat
How it was run: (§1)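 Visual injury scored 0–100 (100 = complete control) against untreated controls after 13–15 greenhouse days. Surfactant-containing solvent formulations applied either to soil after sowing (loam/sand) or over 1- to 4-leaf plants, 2–18 cm tall.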

[2] = test system: foxtail, giant (giant foxtail, Setaria faberii); test: Test C pre-/postemergence: foxtail, giant
How it was run: as §1

kochia (Kochia scoparia) = test: Test C pre-/postemergence: kochia
How it was run: as §1

wild oat (Avena fatua) = test: Test C pre-/postemergence: wild oat
How it was run: as §1

[3] = test system: crabgrass, large (large crabgrass, Digitaria sanguinalis); test: Test A pre-/postemergence: crabgrass, large; conditions: Digitaria sanguinalis, 240 h; for pest or weed control at 125 g/ha: 125 g ai/ha; for pest or weed control at 500 g/ha: 500 g ai/ha
How it was run: (§2)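 Pre: directed soil spray after planting in loam + sand. Post: same formulation (non-phytotoxic solvent + surfactant) on 1–2-leaf plants, 2–10 cm. Greenhouse ~10 d; visual injury 0–100 vs untreated.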

[4] = test system: foxtail, giant (giant foxtail, Setaria faberii); test: Test A pre-/postemergence: foxtail, giant; conditions: Setaria faberi, 240 h; for pest or weed control at 125 g/ha: 125 g ai/ha; for pest or weed control at 500 g/ha: 500 g ai/ha
How it was run: as §2

[5] = test system: ragweed (common ragweed, Ambrosia elation); test: Test C pre-/postemergence: ragweed
How it was run: as §1

soybean (Glycine max) = test: Test C pre-/postemergence: soybean
How it was run: as §1

[6] = test system: velvetleaf (Abutilon theophrasti); test: Test C pre-/postemergence: velvetleaf
How it was run: as §1

[7] = test system: large crabgrass (Digitaria sanguinalis); test: Test C pre-/postemergence: large crabgrass
How it was run: as §1

[8] = test system: pigweed (Amaranthus retroflexus); test: Test C pre-/postemergence: pigweed
How it was run: as §1

corn (Zea mays) = test: Test A pre-/postemergence: corn; conditions: Zea mays, 240 h
How it was run: as §2

[9] = Postemergence, 31 g ai/ha, scale 0 to 100 (0 no effect, 100 complete control)
[10] = Postemergence, 62 g ai/ha, scale 0 to 100 (0 no effect, 100 complete control)
[11] = Postemergence, 125 g ai/ha, scale 0 to 100, 0 no effect, 100 complete control
[12] = Postemergence, 250 g ai/ha, scale 0 to 100
[13] = Preemergence, 31 g ai/ha, scale of 0 to 100, 0 is no effect, 100 is complete control
[14] = Preemergence, 62 g ai/ha, scale of 0 to 100, 0 is no effect, 100 is complete control
[15] = Preemergence, 125 g ai/ha, scale 0 to 100, 0 no effect, 100 complete control
[16] = Preemergence, 250 g ai/ha, scale 0 to 100, 0 no effect, 100 complete control

With Cc1nn(-c2ccc(F)cc2)nc1Oc1ccnc(C(F)(F)F)c1 [Compound 129, 4-[[2-(4-fluorophenyl)-5-methyl-2H-1,2,3-triazol-4-yl]oxy]-2-(trifluoromethyl)pyridine] the “Plant response rating, Wheat” value [1, 9] was 20, the “Plant response rating, Wheat” value [1, 10] was 25 and the “Plant response rating, Wheat” value [1, 11] was 30. For the same compound, the “Plant response rating, Wheat” value [1, 12] was 40, the “Plant response rating, Wheat” value [1, 13] was 0 and the “Plant response rating, Wheat” value [1, 14] was 20. For the same compound, the “Plant response rating, Wheat” value [1, 15] was 30, the “Plant response rating, Wheat” value [1, 16] was 60 and the “Plant response rating, Foxtail, Giant” value [2, 9] was 0. The “Plant response rating, Foxtail, Giant” value [2, 10] was 20, the “Plant response rating, Foxtail, Giant” value [2, 11] was 30 and the “Plant response rating, Foxtail, Giant” value [2, 12] was 65. The “Plant response rating, Foxtail, Giant” value [2, 13] was 95, the “Plant response rating, Foxtail, Giant” value [2, 14] was 98 and the “Plant response rating, Foxtail, Giant” value [2, 15] was 98. For the same compound, the “Plant response rating, Foxtail, Giant” value [2, 16] was 98, the “Plant response rating, Kochia” value (kochia (Kochia scoparia); [9]) was 95 and the “Plant response rating, Kochia” value (kochia (Kochia scoparia); [10]) was 95. For the same compound, the “Plant response rating, Kochia” value (kochia (Kochia scoparia); [11]) was 98, the “Plant response rating, Kochia” value (kochia (Kochia scoparia); [12]) was 98 and the “Plant response rating, Kochia” value (kochia (Kochia scoparia); [13]) was 5. The “Plant response rating, Kochia” value (kochia (Kochia scoparia); [14]) was 90, the “Plant response rating, Kochia” value (kochia (Kochia scoparia); [15]) was 90 and the “Plant response rating, Kochia” value (kochia (Kochia scoparia); [16]) was 95. The “Plant response rating, Oat, Wild” value (wild oat (Avena fatua); [9]) was 20, the “Plant response rating, Oat, Wild” value (wild oat (Avena fatua); [10]) was 35 and the “Plant response rating, Oat, Wild” value (wild oat (Avena fatua); [11]) was 50. The “Plant response rating, Oat, Wild” value (wild oat (Avena fatua); [12]) was 80, the “Plant response rating, Oat, Wild” value (wild oat (Avena fatua); [13]) was 40 and the “Plant response rating, Oat, Wild” value (wild oat (Avena fatua); [14]) was 85. The “Plant response rating, Oat, Wild” value (wild oat (Avena fatua); [15]) was 95, the “Plant response rating, Oat, Wild” value (wild oat (Avena fatua); [16]) was 95 and the pest or weed control at 125 g/ha ([3]; post-emergence, Postemergence, 0 to 100 scale, 0 is no effect, 100 is complete control, read-out: Crabgrass, Large plant response rating) was 90%. It also gave a pest or weed control at 500 g/ha ([3]; post-emergence, Postemergence, visual rating on 0 to 100 scale (0 no effect, 100 complete control), approximately ten days, read-out: Crabgrass, Large plant response rating) of 90%, a pest or weed control at 125 g/ha ([3]; pre-emergence, Preemergence, 0 to 100 scale where 0 is no effect and 100 is complete control, read-out: Plant response rating, Crabgrass, Large) of 100% and a pest or weed control at 500 g/ha ([3]; pre-emergence, Preemergence, 0 to 100 scale (0 no effect, 100 complete control), read-out: Plant response rating, Crabgrass, Large) of 100%. The pest or weed control at 125 g/ha ([4]; post-emergence, Postemergence, 0 to 100 scale, 0 is no effect, 100 is complete control, read-out: Foxtail, Giant plant response rating) was 90%, the pest or weed control at 500 g/ha ([4]; post-emergence, Postemergence, visual rating on 0 to 100 scale (0 no effect, 100 complete control), approximately ten days, read-out: Foxtail, Giant plant response rating) was 90% and the pest or weed control at 125 g/ha ([4]; pre-emergence, Preemergence, 0 to 100 scale where 0 is no effect and 100 is complete control, read-out: Plant response rating, Foxtail, Giant) was 100%. The pest or weed control at 500 g/ha ([4]; pre-emergence, Preemergence, 0 to 100 scale (0 no effect, 100 complete control), read-out: Plant response rating, Foxtail, Giant) was 100%, the “Plant response rating, Ragweed” value [5, 9] was 40 and the “Plant response rating, Ragweed” value [5, 10] was 40. For the same compound, the “Plant response rating, Ragweed” value [5, 11] was 45, the “Plant response rating, Ragweed” value [5, 12] was 45 and the “Plant response rating, Ragweed” value [5, 13] was 0. For the same compound, the “Plant response rating, Ragweed” value [5, 14] was 0, the “Plant response rating, Ragweed” value [5, 15] was 0 and the “Plant response rating, Ragweed” value [5, 16] was 55. The “Plant response rating, Soybean” value (soybean (Glycine max); [9]) was 20, the “Plant response rating, Soybean” value (soybean (Glycine max); [10]) was 40 and the “Plant response rating, Soybean” value (soybean (Glycine max); [11]) was 70. The “Plant response rating, Soybean” value (soybean (Glycine max); [12]) was 75, the “Plant response rating, Soybean” value (soybean (Glycine max); [13]) was 0 and the “Plant response rating, Soybean” value (soybean (Glycine max); [14]) was 0. The “Plant response rating, Soybean” value (soybean (Glycine max); [15]) was 10, the “Plant response rating, Soybean” value (soybean (Glycine max); [16]) was 40 and the “Plant response rating, Velvetleaf” value [6, 9] was 45. The “Plant response rating, Velvetleaf” value [6, 10] was 45, the “Plant response rating, Velvetleaf” value [6, 11] was 80 and the “Plant response rating, Velvetleaf” value [6, 12] was 100. The “Plant response rating, Velvetleaf” value [6, 13] was 0, the “Plant response rating, Velvetleaf” value [6, 14] was 10 and the “Plant response rating, Velvetleaf” value [6, 15] was 45. The “Plant response rating, Velvetleaf” value [6, 16] was 95, the “Plant response rating, Crabgrass, Large” value [7, 9] was 20 and the “Plant response rating, Crabgrass, Large” value [7, 10] was 45. The “Plant response rating, Crabgrass, Large” value [7, 11] was 65, the “Plant response rating, Crabgrass, Large” value [7, 12] was 85 and the “Plant response rating, Crabgrass, Large” value [7, 13] was 98. For the same compound, the “Plant response rating, Crabgrass, Large” value [7, 14] was 100, the “Plant response rating, Crabgrass, Large” value [7, 15] was 100 and the “Plant response rating, Crabgrass, Large” value [7, 16] was 100. For the same compound, the “Plant response rating, Pigweed” value [8, 9] was 85, the “Plant response rating, Pigweed” value [8, 10] was 98 and the “Plant response rating, Pigweed” value [8, 11] was 98. The “Plant response rating, Pigweed” value [8, 12] was 100, the “Plant response rating, Pigweed” value [8, 13] was 100 and the “Plant response rating, Pigweed” value [8, 14] was 100. The “Plant response rating, Pigweed” value [8, 15] was 100, the “Plant response rating, Pigweed” value [8, 16] was 100 and the plant injury at 125 g/ha (corn (Zea mays); post-emergence, Postemergence, 125 g ai/ha, 0 to 100 scale, 0 is no effect, 100 is complete control, read-out: Corn plant response rating) was 30%. The plant injury at 500 g/ha (corn (Zea mays); post-emergence, Postemergence, 500 g ai/ha, visual rating on 0 to 100 scale (0 no effect, 100 complete control), approximately ten days, read-out: Corn plant response rating) was 40%, the Corn plant response rating (crop injury, 0 = no effect, 100 = complete kill) at 125 g/ha (corn (Zea mays); pre-emergence, Preemergence, 125 g ai/ha, 0 to 100 scale where 0 is no effect and 100 is complete control) was 50% and the Corn plant response rating (crop injury, 0 = no effect, 100 = complete kill) at 500 g/ha (corn (Zea mays); pre-emergence, Preemergence, 500 g ai/ha, 0 to 100 scale (0 no effect, 100 complete control)) was 60%.
